From patent publication US20030096782A1, “Expression profiling in the intact human heart” (The Regents of the University of Colorado, priority 2001, published 2003)

Tested on: subjects with idiopathic dilated cardiomyopathy (IDC)
Test: Serial study of subjects with idiopathic dilated cardiomyopathy treated with β-blocking agents or placebo (LVEF / phenotype)
Type: in vivo, human
Conditions: for phenotype: baseline versus after 6 months of treatment; for left ventricular ejection fraction (LVEF): subjects with baseline IDC, 6-7 month period, change versus baseline
Method: Dynamic expression profiling was performed in the intact human heart in 8 subjects with idiopathic dilated cardiomyopathy (IDC), on RNA extracted from RV septal endomyocardial biopsies performed at baseline and after 6 months treatment with β-blocking agents (n=6) or placebo (n=2). Affmetrix™ U95a GeneChips, which contain 12,625 gene sequences/chip, were used for expression profiling.
Endomyocardial biopsies were obtained during a 6-7 month period from eight subjects with baseline idiopathic dilated cardiomyopathy (IDC). Of these subjects, six were treated with the β-blocking agents carvedilol and metoprolol, and two were treated with placebo.
Biopsied samples obtained from these subjects were analyzed by quantitative reverse transcript polymerase chain reaction (QRT PCR), and the mRNAs obtained were further analyzed by Affymetrix Gene chip. Subjects with ideal substantial noise ratios were categorized in the low scaling factor group and those with substantial noise, which compromised quantitation, categorized in the high scaling factor group. Gene expression patterns were further compared between the seven subjects showing improved phenotypes and the one subject showing worsening phenotype. Of the four subjects in the low scaling group showing an improved LVEF, one had received placebo, one carvedilol, and one metoprolol, with the fourth subject treated with placebo showing a decrease LVEF. Of the four subjects in the high scaling group three received carvedilol and one received metoprolol.
Serial measurements of myocardial gene expression were performed on 4 subjects with […], at baseline and after 6 months of treatment with β-blocking agents (n=2, 1 carvediol and 1 metroprolol) or placebo (n=2). RNA was extracted from endomyocardial biopsy material, and expression profiling was performed via Affymetrix U95a GeneChips. […] In the three subjects who improved, a between-subject anaylsis was performed at baseline, and compared to a within-subject comparison between baseline and end of study.

Row | Compound | phenotype | left ventricular ejection fraction (LVEF)
1 | COc1ccccc1OCCNCC(O)COc1cccc2[nH]c3ccccc3c12 (stereo not shown) [carvedilol] | improvement in phenotype | improved
2 | COCCc1ccc(OCC(O)CNC(C)C)cc1 (stereo not shown) [metoprolol] | improvement in phenotype | improved
